Measurements from patent US8198273B2, “Compounds and methods for kinase modulation, and indications therefor” (Plexxikon Inc., priority 2009, dated 2012).

How the values were obtained:
B-Raf = B-Raf (Homo sapiens, UniProt P15056); assay: B-Raf biochemical kinase inhibition (AlphaScreen, biotin-MEK1 substrate); details: 100 μM ATP
Summary of the method: (§1)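 Raf kinases phosphorylating biotin-MEK1, reaction started with ATP at 100 μM final. Compounds tested at 8 points by serial dilution from a 0.1 mM DMSO stock.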

B-Raf V600E = B-Raf V600E (Homo sapiens, UniProt P15056, V600E); assay: B-Raf V600E biochemical kinase inhibition (AlphaScreen, biotin-MEK1 substrate); details: 100 μM ATP
Summary of the method: as §1

[1] = Relative solubility by turbidity in aqueous buffers of varying pH; format: physicochemical; details: for turbidity threshold (L, M, H) 7.4: HEPES pH 7.4; for turbidity threshold (L, M, H) 4.5: SIF pH 4.5; for turbidity threshold (L, M, H) 6.8: SIF pH 6.8; for turbidity threshold (L, M, H) 1.4: buffer pH 1.4 (SGF)
Summary of the method: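 Turbidity endpoint: concentration where optical density at 490, 535 and 650 nm exceeds 0.01, three-wavelength average used. Buffers at pH 1.5, 4.5, 6.8 and 7.4; DMSO serial dilutions of 25 mM stock spiked 1 μL into 99 μL buffer. Low <31.3, moderate 31.3–250, high >250 μM.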

CYP1A2 = target: T1, CYP1A2 (Homo sapiens, UniProt P05177); assay: CYP1A2 inhibition (fluorescent substrate); format: in vitro ADME; details: CYP1A2, CEC substrate; read-out: Cyp IC50 1A2
T1 sequence (P05177 1-516): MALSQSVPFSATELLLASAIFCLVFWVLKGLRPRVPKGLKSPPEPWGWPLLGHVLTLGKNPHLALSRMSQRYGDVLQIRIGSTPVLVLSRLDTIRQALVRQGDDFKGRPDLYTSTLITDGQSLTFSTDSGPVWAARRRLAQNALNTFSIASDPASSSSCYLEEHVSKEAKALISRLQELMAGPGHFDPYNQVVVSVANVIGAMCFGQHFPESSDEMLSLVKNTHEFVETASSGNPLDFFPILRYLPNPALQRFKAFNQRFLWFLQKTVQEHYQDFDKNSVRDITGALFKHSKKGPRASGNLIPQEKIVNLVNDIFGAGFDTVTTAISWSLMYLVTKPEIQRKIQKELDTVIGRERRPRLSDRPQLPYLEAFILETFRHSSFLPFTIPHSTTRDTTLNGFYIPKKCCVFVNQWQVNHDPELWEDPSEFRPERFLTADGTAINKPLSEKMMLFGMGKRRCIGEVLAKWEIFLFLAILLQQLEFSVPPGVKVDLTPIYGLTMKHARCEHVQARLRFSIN
Summary of the method: (§2)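 Human CYP activity was followed by the fluorescence of the metabolized product of a known substrate, which falls as metabolism is inhibited. Compounds from 100 mM DMSO stocks were serially diluted 1:1 over 10 points in co-factor mix and preincubated 10 min at 37 °C. IC50 was fitted from signal versus concentration.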

CYP2C19 = CYP2C19 (Homo sapiens, UniProt P33261); assay: CYP2C19 inhibition (fluorescent substrate); format: in vitro ADME; details: CYP2C19, CEC substrate; read-out: Cyp IC50 2C19
Summary of the method: as §2

CYP3A4(BFC) = CYP3A4(BFC) (Homo sapiens, UniProt P08684); assay: CYP3A4(BFC) inhibition (fluorescent substrate); format: in vitro ADME; details: read-out: Cyp IC50 3A4(BFC)
Summary of the method: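 Inhibition was followed as loss of fluorescent metabolite from a known substrate, with compound in co-factor mix as a 10-point 1:1 serial dilution (100 mM DMSO stock).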

CYP2C19, sequence (P33261 whole entry): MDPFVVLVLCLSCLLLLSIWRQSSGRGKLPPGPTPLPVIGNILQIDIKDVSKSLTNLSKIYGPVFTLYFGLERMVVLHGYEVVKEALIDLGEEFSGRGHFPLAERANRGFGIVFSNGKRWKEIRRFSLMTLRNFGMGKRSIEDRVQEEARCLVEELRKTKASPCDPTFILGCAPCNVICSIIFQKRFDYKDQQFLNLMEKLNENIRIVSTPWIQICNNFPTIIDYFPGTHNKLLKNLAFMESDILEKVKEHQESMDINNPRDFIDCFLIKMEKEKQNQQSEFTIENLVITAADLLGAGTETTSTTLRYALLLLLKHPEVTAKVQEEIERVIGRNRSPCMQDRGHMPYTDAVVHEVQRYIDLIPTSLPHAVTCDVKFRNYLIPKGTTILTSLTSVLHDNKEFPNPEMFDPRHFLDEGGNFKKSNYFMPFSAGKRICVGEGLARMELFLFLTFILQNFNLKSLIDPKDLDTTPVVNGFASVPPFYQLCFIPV
B-Raf V600E, sequence (P15056 whole entry V600E): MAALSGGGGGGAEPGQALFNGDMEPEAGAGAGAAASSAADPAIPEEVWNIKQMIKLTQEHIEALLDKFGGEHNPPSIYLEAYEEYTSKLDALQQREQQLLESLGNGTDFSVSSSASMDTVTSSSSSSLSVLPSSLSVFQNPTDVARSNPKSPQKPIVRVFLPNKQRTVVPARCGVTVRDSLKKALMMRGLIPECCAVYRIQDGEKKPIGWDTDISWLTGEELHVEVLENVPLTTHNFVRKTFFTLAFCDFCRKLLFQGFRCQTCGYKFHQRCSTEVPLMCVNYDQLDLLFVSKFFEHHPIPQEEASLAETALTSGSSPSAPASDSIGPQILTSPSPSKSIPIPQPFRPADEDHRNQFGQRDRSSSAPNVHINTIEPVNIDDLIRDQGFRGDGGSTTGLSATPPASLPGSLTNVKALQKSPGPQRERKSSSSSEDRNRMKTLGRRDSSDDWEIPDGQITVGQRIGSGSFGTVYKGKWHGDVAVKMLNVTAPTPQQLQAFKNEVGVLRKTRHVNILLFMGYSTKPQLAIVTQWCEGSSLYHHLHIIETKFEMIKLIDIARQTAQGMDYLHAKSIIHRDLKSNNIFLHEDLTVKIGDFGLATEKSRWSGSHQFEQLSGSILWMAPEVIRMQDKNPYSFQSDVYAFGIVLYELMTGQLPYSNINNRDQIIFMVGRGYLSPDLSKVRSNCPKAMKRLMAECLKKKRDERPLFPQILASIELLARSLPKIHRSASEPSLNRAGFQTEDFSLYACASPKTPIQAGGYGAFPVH
CYP3A4(BFC), sequence (P08684 whole entry): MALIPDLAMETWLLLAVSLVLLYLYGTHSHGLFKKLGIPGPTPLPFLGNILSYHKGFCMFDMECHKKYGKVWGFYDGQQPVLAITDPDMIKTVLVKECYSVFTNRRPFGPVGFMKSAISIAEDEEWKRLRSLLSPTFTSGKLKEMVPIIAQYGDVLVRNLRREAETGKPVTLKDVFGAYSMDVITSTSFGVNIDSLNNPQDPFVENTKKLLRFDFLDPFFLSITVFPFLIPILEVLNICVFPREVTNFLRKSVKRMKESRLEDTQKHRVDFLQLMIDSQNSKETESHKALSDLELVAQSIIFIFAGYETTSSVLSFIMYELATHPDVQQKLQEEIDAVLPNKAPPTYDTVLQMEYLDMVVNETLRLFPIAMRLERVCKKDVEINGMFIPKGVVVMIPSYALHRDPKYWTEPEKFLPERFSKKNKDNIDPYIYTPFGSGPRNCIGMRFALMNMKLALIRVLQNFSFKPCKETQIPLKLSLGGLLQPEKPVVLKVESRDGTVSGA
B-Raf, sequence (P15056 whole entry): as the sequence (P15056 whole entry V600E) above, with E600V counted along it

| Structure (SMILES) | IC50 (B-Raf) [µM] | IC50 (B-Raf V600E) [µM] | IC50 (CYP1A2) [µM] | IC50 (CYP2C19) [µM] | IC50 (CYP3A4(BFC)) [µM] | turbidity threshold (L, M, H) 7.4 [1] | turbidity threshold (L, M, H) 4.5 [1] | turbidity threshold (L, M, H) 6.8 [1] | turbidity threshold (L, M, H) 1.4 [1] |
| --- | --- | --- | --- | --- | --- | --- | --- | --- | --- |
| N#Cc1cnc2[nH]cc(C(=O)c3cccc(NS(=O)(=O)c4ccccc4F)c3F)c2c1 [P-2051, N-[3-(5-Cyano-1H-pyrrolo[2,3-b]pyridine-3-carbonyl)-2-fluoro-phenyl]-2-fluoro-benzenesulfonamide] | < 0.1 | < 0.01 | > 10 | > 10 | > 10 | M (moderate solubility if the threshold concentration is 31.3 μM to 250 μM) | M (moderate solubility if the threshold concentration is 31.3 μM to 250 μM) | M (moderate solubility if the threshold concentration is 31.3 μM to 250 μM) | M (moderate solubility if the threshold concentration is 31.3 μM to 250 μM) |
| N#Cc1cnc2[nH]cc(C(=O)c3cccc(NS(=O)(=O)c4cc(F)ccc4F)c3F)c2c1 [P-2052, N-[3-(5-Cyano-1H-pyrrolo[2,3-b]pyridine-3-carbonyl)-2-fluoro-phenyl]-2,5-difluoro-benzenesulfonamide] | < 0.1 | < 0.01 | > 10 | > 10 | 5 to 10 | M (moderate solubility if the threshold concentration is 31.3 μM to 250 μM) | L (low solubility if the threshold concentration is <31.3 04) | M (moderate solubility if the threshold concentration is 31.3 μM to 250 μM) | L (low solubility if the threshold concentration is <31.3 04) |
| N#Cc1cnc2[nH]cc(C(=O)c3cccc(NS(=O)(=O)c4ccccc4)c3F)c2c1 [P-2056, N-[3-(5-Cyano-1H-pyrrolo[2,3-b]pyridine-3-carbonyl)-2-fluoro-phenyl]-benzenesulfonamide] | < 0.1 | < 0.01 | > 10 | > 10 | > 10 | M (moderate solubility if the threshold concentration is 31.3 μM to 250 μM) | L (low solubility if the threshold concentration is <31.3 04) | M (moderate solubility if the threshold concentration is 31.3 μM to 250 μM) | L (low solubility if the threshold concentration is <31.3 04) |
| CCCS(=O)(=O)Nc1ccc(F)c(C(=O)c2c[nH]c3ncc(-c4ccc(F)nc4)cc23)c1F [P-2155, Propane-1-sulfonic acid {2,4-difluoro-3-[5-(6-fluoro-pyridin-3-yl)-1H-pyrrolo[2,3-b]pyridine-3-carbonyl]-phenyl}-amide] | < 0.01 | < 0.01 | > 10 | 5 to 10 | > 10 | L (low solubility if the threshold concentration is <31.3 04) | L (low solubility if the threshold concentration is <31.3 04) | L (low solubility if the threshold concentration is <31.3 04) | L (low solubility if the threshold concentration is <31.3 04) |
| CCCS(=O)(=O)Nc1ccc(F)c(C(=O)c2c[nH]c3ncc(-c4cncnc4)cc23)c1F [P-2162, Propane-1-sulfonic acid [2,4-difluoro-3-(5-pyrimidin-5-yl-1H-pyrrolo[2,3-b]pyridine-3-carbonyl)-phenyl]-amide] | < 0.1 | < 0.01 | < 5 | > 10 | 5 to 10 | M (moderate solubility if the threshold concentration is 31.3 μM to 250 μM) | M (moderate solubility if the threshold concentration is 31.3 μM to 250 μM) | M (moderate solubility if the threshold concentration is 31.3 μM to 250 μM) | M (moderate solubility if the threshold concentration is 31.3 μM to 250 μM) |

Second part, led by results:

| IC50 (B-Raf) [µM] | IC50 (B-Raf V600E) [µM] | IC50 (CYP1A2) [µM] | IC50 (CYP2C19) [µM] | IC50 (CYP3A4(BFC)) [µM] | Structure (SMILES) | turbidity threshold (L, M, H) 7.4 [1] | turbidity threshold (L, M, H) 4.5 [1] | turbidity threshold (L, M, H) 6.8 [1] | turbidity threshold (L, M, H) 1.4 [1] |
| --- | --- | --- | --- | --- | --- | --- | --- | --- | --- |
| < 0.01 | < 0.01 | > 10 | < 5 | > 10 | N#Cc1cnc2[nH]cc(C(=O)c3c(F)ccc(NS(=O)(=O)c4ccccc4)c3F)c2c1 [P-2046, N-[3-(5-Cyano-1H-pyrrolo[2,3-b]pyridine-3-carbonyl)-2,4-difluoro-phenyl]-benzenesulfonamide] | M (moderate solubility if the threshold concentration is 31.3 μM to 250 μM) | L (low solubility if the threshold concentration is <31.3 04) | M (moderate solubility if the threshold concentration is 31.3 μM to 250 μM) | L (low solubility if the threshold concentration is <31.3 04) |
| < 0.01 | < 0.01 | > 10 | > 10 | > 10 | N#Cc1cnc2[nH]cc(C(=O)c3cccc(NS(=O)(=O)c4cccc(F)c4)c3F)c2c1 [P-2053, N-[3-(5-Cyano-1H-pyrrolo[2,3-b]pyridine-3-carbonyl)-2-fluoro-phenyl]-3-fluoro-benzenesulfonamide] | M (moderate solubility if the threshold concentration is 31.3 μM to 250 μM) | L (low solubility if the threshold concentration is <31.3 04) | M (moderate solubility if the threshold concentration is 31.3 μM to 250 μM) | L (low solubility if the threshold concentration is <31.3 04) |
| < 0.01 | < 0.01 | > 10 | > 10 | < 5 | Cc1cnc2[nH]cc(C(=O)c3c(F)ccc(NS(=O)(=O)c4cccnc4)c3F)c2c1 [P-2069, Pyridine-3-sulfonic acid [2,4-difluoro-3-(5-methyl-1H-pyrrolo[2,3-b]pyridine-3-carbonyl)-phenyl]-amide] | H (high solubility if the threshold concentration is >250 μM) | M (moderate solubility if the threshold concentration is 31.3 μM to 250 μM) | M (moderate solubility if the threshold concentration is 31.3 μM to 250 μM) | H (high solubility if the threshold concentration is >250 μM) |
| < 0.01 | < 0.01 | > 10 | > 10 | > 10 | CCCS(=O)(=O)Nc1ccc(F)c(C(=O)c2c[nH]c3ncc(-c4ccc(C(=O)NCC)nc4)cc23)c1F [P-2151, 5-{3-[2,6-Difluoro-3-(propane-1-sulfonylamino)-benzoyl]-1H-pyrrolo[2,3-b]pyridin-5-yl}-pyridine-2-carboxylic acid ethylamide] | L (low solubility if the threshold concentration is <31.3 04) | L (low solubility if the threshold concentration is <31.3 04) | L (low solubility if the threshold concentration is <31.3 04) | L (low solubility if the threshold concentration is <31.3 04) |
